Laboratory results reported in patent US20180338993A1, “TREATMENT OF HEPATITIS DELTA VIRUS INFECTION” (Eiger BioPharmaceuticals, Inc., priority 2014, published 2018).
Converted amounts (≈) assume the structure as drawn. Where two headings read alike, the source gives them in different places.

Columns and labels:
[1] = Solubility in water, buffers and physiological fluids; assay type: physicochemical
Source text: Tipifarnib is a methyl-quinolinone with a molecular formula of C27H22Cl2N4O and molecular weight of 489.40. […] These are safe and well tested excipients that are commonly used in marketed products. The film coatings of the tablets contain hypromellose, titanium dioxide, lactose monohydrate, polyethylene glycol, and triacetin. “Tipifarnib derivative” as used herein refers not only to R208176 but also to molecules closely structurally related to either tipifarnib or R208176 with similar pharmacologic activity against HDV; this term includes, for example and without limitation, compounds described in U.S. Pat. Nos. 6,169,096; 6,365,600; 6,420,387; 6,734,194; 6,743,805; 6,838,467; and 7,253,183.
R208176 is an off-white, non-hygroscopic and crystalline powder. It has a molecular weight of 501.4 Daltons and a molecular formula of C25H18Cl2N8.

[2] = cited from earlier work

Structure (SMILES)	solubility ([1]; 0.1 N HCl, simulated gastric fluid, read-out: solubility in 0.1 N HCl) [µg/mL]	solubility in 0.1 N NaOH ([1]; 0.1 N NaOH)	solubility ([1]; aqueous buffer, citrate-HCl buffer pH 4, read-out: solubility in citrate-HCl buffer pH 4) [µg/mL]	solubility in borate-HCl buffer pH 8 ([1]; borate-HCl buffer pH 8)	solubility in borate-KCl—NaOH buffer pH 10 ([1]; borate-KCl—NaOH buffer pH 10)	solubility in citrate-HCl buffer pH 2 ([1]; citrate-HCl buffer pH 2)	solubility in citrate-NaOH buffer pH 6 ([1]; citrate-NaOH buffer pH 6)	solubility ([1]; gastric fluid, simulated gastric fluid, read-out: solubility in gastric fluid) [µg/mL]	solubility in intestinal fluid ([1]; intestinal fluid)	solubility in water [1]	solubility in 0.1 N HCl ([1]; 0.1 N HCl)	solubility in citrate-HCl buffer ([1]; citrate-HCl buffer)	solubility in citrate-NaOH buffer ([1]; citrate-NaOH buffer)	solubility in phosphate buffers ([1]; phosphate buffers)	DLTs at 200 mg BID ([2]; 200 mg BID dose, dosed for 200 days)	patients stopping treatment due to adverse events (grade 3 or 4) ([2]; 13 cancer patients)	Dose limiting toxicities ([2]; cancer patients, continuous oral BID dosing)	MTD ([2]; cancer patients, orally BID, continuous dosing for up to 56 days) [mg]	Most common AEs ([2]; cancer patients)
Cn1cncc1[C@@](N)(c1ccc(Cl)cc1)c1ccc2c(c1)c(-c1cccc(Cl)c1)nc1nnnn12 [R208176]	10000 to 33000 (≈ 19.9 to 65.8 mM)	practically insoluble	100 to 1000 (≈ 0.199 to 1.99 mM)	practically insoluble	practically insoluble	slightly soluble	practically insoluble	10000 to 33000 (≈ 19.9 to 65.8 mM)	practically insoluble	practically insoluble									
Cn1cncc1[C@@](N)(c1ccc(Cl)cc1)c1ccc2c(c1)c(-c1cccc(Cl)c1)cc(=O)n2C [tipifarnib, (R)-6-[amino(4-chlorophenyl)(1-methyl-1H-imidazol-5-yl)methyl]-4-(3-chlorophenyl)-1-methyl-2(1H)-quinolinone]										insoluble	moderately soluble	slightly soluble	insoluble	insoluble	No DLTs were observed	4 of 13	granulocytopenia and neuropathy	300	gastrointestinal-related
